Assay [1] has as its system M11–Beclin1(101–267) complex. As to the kind of experiment: Displacement test on M11–Beclin1(101–267) complex. Format: binding, murine γ-herpesvirus 68. The settings on record: M11 mixed with Beclin1(101–267) at 1:1 molar ratio, 1 h; BH3 peptide added, additional 1 h; gel. The source says: (§1) A newly identified function of BCL-2 is the down regulation of autophagy through their inhibitory binding to Beclin1, which appears critical for cellular homeostasis. […] The weak interaction explains the recent observation that endogenous BH3-only proteins induce autophagy by displacing Beclin1 from BCL-2/BCL-XL [31]. Like the cellular kin, two viral BCL-2 proteins from γHV68 and KSHV are known to inhibit autophagy in addition to suppressing apoptotic death of cells. In this study, we provided the structural basis for the inhibitory interaction of M11 with Beclin1, which is reminiscent of the canonical interaction between a BH3 peptide and a BH3-binding groove. […] As a confirmatory experiment, we carried out a displacement test, where a complex between two proteins was challenged by another protein. […] Conceivably, M11 could negate the proautophagic role of the BH3-only proteins under apoptosis-inducing conditions in contrast with BCL-2/BCL-XL.
The complexes between each of the BH3 peptides and BCL-2 or BCL-XL appeared. The numbers above the gels indicate the final concentrations of the indicated proteins and peptides. The schematic drawings are shown to help to understand the experimental scheme and results. (1.8 MB TIF) Click here for additional data file.

The test system of another assay is BCL-2 ∆C22. Also on record: method as in earlier work. The settings on record: Table S1; relative values, not absolute KD; peptides of Chen et al. are the same as or 1 to 2 residues shorter than those of this paper; read-out: binding affinity for BCL-2 ∆C22 (relative value, competitive binding assay); cited from earlier work.
The next assay relates to BCL-XL ∆C24. The settings on record: Table S1; relative values, not absolute KD; peptides of Chen et al. are the same as or 1 to 2 residues shorter than those of this paper; read-out: binding affinity for BCL-XL ∆C24 (relative value, competitive binding assay); cited from earlier work.
The test system of a further assay is BCL-w ∆C29. The settings on record: Table S1; relative values, not absolute KD; peptides of Chen et al. are the same as or 1 to 2 residues shorter than those of this paper; read-out: binding affinity for BCL-w ∆C29 (relative value, competitive binding assay); cited from earlier work.
The subject of another assay is A1 ∆C20. Also on record: method as in earlier work. The following applies: Table S1; relative values, not absolute KD; peptides of Chen et al. are the same as or 1 to 2 residues shorter than those of this paper; read-out: binding affinity for A1 ∆C20 (relative value, competitive binding assay); cited from earlier work.
In assay [2] the target is T1, M11, viral BCL-2 of murine γ-herpesvirus 68 (residues 1–137) (Murid herpesvirus 4, UniProt P89884).
T1 construct: Each of the DNA fragments coding for M11 (residues 1–137); His6 tag; This is inferred: pPROEX HTa encodes an N-terminal His tag with a TEV site, and purification was on Ni-NTA; (N); made in house; host or cells: E. coli BL21(DE3)
T1 sequence (P89884 whole entry, looked up): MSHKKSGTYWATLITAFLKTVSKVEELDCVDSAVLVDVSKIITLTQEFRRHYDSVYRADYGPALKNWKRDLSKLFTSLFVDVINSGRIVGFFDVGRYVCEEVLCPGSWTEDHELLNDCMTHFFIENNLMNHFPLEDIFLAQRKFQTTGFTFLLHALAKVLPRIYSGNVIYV
Format: binding. The following applies: 25 °C, 20 mM Tris-HCl (pH 7.4), 100 mM NaCl. The source says:
“HT”, “CCD” and “ECD” denote hydrophobic tail, coiled-coil domain and evolutionarily conserved domain, respectively. […] The surface coloring scheme is as follows: olive for Val, Leu, Ile, Phe, Trp, Met, and Ala; yellow for Cys, Gly, Tyr, and Pro; gray for other amino acids. […] Only the BH3-binding groove region of M11 is shown for clarity. […] The arrows indicate the movements of the Cα atoms of Asp59 and Tyr60 in M11. (C) ITC analysis.
Figure 5 Analyses of the Interactions between M11 or BCL-2 Proteins and BAX/BAK (A) Cell-based binding assay. 293T cells were transfected with HA-tagged BAK or Flag-tagged BAX together with the indicated GST-tagged prosurvival BCL-2 proteins. Whole cell lysates were used for immunoprecipitation with anti-GST followed by immunoblotting with anti-HA or anti-Flag. […] (B) ITC analyses of the interactions of M11 with the BH3 peptides of BAX or BAK. The ITC analysis was carried out by titrating 0.1 mM of the indicated peptides into 5 μM of M11. The ITC run for the titration of the 26-mer BAK peptide is shown. […] NIH3T3 cells were transfected with HA-tagged M11 and whole cell lysates were used for immunoprecipitation with control rabbit serum or anti-BAK followed by immunoblotting with anti-HA.
A plasmid containing the DNA segment coding for human BCL-2 (residues 1–50 and 92–207) was also constructed. The resulting protein lacks the internal long loop (residues 51–91) and contains a replacement of residues 35–50 with residues 33–48 of BCL-XL, which was necessary for the solubility of the protein as reported earlier. Each construct was introduced into the E. coli BL21(DE3) strain. The proteins were expressed at 21 °C overnight and purified using a Ni-NTA column and a Hitrap Q anion exchange column.
All measurements were carried out at 25 °C on a MicroCalorimetry System (MicroCal). Protein samples were dialyzed against the solution containing 20 mM Tris-HCl (pH 7.4) and 100 mM NaCl. The samples were degassed for 20 min and centrifuged to remove any residuals prior to the measurements. Dilution enthalpies were measured in separate experiments (titrant into buffer) and subtracted from the enthalpies of the binding between the protein and the titrant. Data were analyzed using the Origin software (OriginLab Corp.).

For assay [3], the system named is BCL-2–Beclin1(101–267) complex. As to the kind of experiment: Displacement test on BCL-2–Beclin1(101–267) complex. Format: binding, human. The following applies: BCL-2 mixed with Beclin1(101–267) at 1:4 molar ratio, 1 h; BH3 peptide added; gel.
Excerpt: as §1
(§2) Each of the DNA fragments coding for M11 (residues 1–137), mouse BCL-XL (residues 1–44 and 85–196) or mouse Beclin1 (residues 101–267) was cloned into pPROEX HTa. A plasmid containing the DNA segment coding for human BCL-2 (residues 1–50 and 92–207) was also constructed. […]

For assay [4], the system named is BCL-XL–Beclin1(101–267) complex. In words: Displacement test on BCL-XL–Beclin1(101–267) complex. The settings on record: BCL-XL mixed with Beclin1(101–267) at 1:4 molar ratio, 1 h; BH3 peptide added; gel. The format is binding, mouse.
Excerpt: as §1, §2

A further assay concerns MCL ∆N151 ∆C23. Further details: method as in earlier work. The following applies: Table S1; relative values, not absolute KD; peptides of Chen et al. are the same as or 1 to 2 residues shorter than those of this paper; read-out: binding affinity for MCL ∆N151 ∆C23 (relative value, competitive binding assay); cited from earlier work.
Another assay has as its target Beclin1 peptide (UniProt Q14457). The settings on record: cited from earlier work.
In assay [5] the target is T2, mouse BAD (residues 43–204) (mouse, UniProt Q61337 43-204).
T2 sequence (looked up): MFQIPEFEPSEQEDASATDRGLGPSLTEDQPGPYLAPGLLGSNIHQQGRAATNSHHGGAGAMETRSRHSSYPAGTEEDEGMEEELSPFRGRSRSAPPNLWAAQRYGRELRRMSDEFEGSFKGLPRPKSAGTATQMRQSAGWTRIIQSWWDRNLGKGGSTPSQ
In words: crystal structure; BCL-XL (1–44, 85–196) coexpressed and co-purified with BAD(43–204); hanging drop, 4 °C, 10% PEG 1000, 10% PEG 8000; 2.3 Å. The following applies: both partners purified.

The target of assay [6] is T3, M11 (residues 1–137), coexpressed with Beclin1(101–150) (murine γ-herpesvirus 68, UniProt P89884 1-137).
T3 sequence: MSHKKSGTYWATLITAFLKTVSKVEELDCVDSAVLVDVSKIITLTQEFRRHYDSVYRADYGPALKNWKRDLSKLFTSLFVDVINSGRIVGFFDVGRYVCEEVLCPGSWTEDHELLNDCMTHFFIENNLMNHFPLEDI
As to the kind of experiment: crystal structure. The settings on record: both partners purified.

Assay [7] concerns the target T4, M11 (residues 1–137), purified alone (murine γ-herpesvirus 68, UniProt P89884 1-137).
T4 chain: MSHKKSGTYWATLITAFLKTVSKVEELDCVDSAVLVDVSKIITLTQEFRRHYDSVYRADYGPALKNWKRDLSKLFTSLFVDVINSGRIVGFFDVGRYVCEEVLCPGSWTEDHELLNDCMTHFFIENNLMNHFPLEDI
In words: ITC.

Entries after “also recorded” stand apart in the source; their conditions may differ. Ends that are not written are not given here. Bounds are passed on as bounds.

`CC[C@H](C)[C@H](NC(=O)[C@H](CCCCN)NC(=O)[C@H](CCCNC(=N)N)NC(=O)[C@H](CC(C)C)NC(=O)[C@H](CCC(N)=O)NC(=O)[C@H](C)NC(=O)[C@H](C)NC(=O)[C@H](Cc1ccccc1)NC(=O)[C@H](CCC(=O)O)NC(=O)[C@@H]1CCCN1C(=O)[C@@H]1CCCN1C(=O)[C@H](CC(C)C)NC(=O)[C@H](CCC(=O)O)NC(=O)[C@H](C)NC(=O)[C@@H](N)CCCNC(=N)N)C(=O)NCC(=O)N[C@@H](CC(=O)O)C(=O)N[C@@H](CCCCN)C(=O)N[C@H](C(=O)N[C@@H](Cc1ccc(O)cc1)C(=O)N[C@@H](CS)C(=O)N[C@H](C(=O)N[C@@H](Cc1c[nH]c2ccccc12)C(=O)N[C@@H](CO)C(=O)N[C@@H](C)C(=O)N1CCC[C@H]1C(=O)O)[C@@H](C)O)C(C)C` [Noxa]: in assay [1], the “displacement of Beclin1(101–267) bound to M11 by BH3 peptide” value is listed as “remained intact; also recorded: failed to displace”. In addition, the IC50 with BCL-2 ∆C22 was more than 100000 nM; with BCL-XL ∆C24 it was more than 100000 nM; in the assay with BCL-w ∆C29, more than 100000 nM; with A1 ∆C20, 180 nM.
In the case of “BAD: synthetic 27-mer BH3 peptide, residues 137–163 of BAD (TATQMRQSSSWTRVFQSWWDRNLGRGS; BH3 peptide; UniProt Q92934 137-163, looked up, fragment)”, the “interaction with M11 in ITC, in words (KD could not be deduced)” value in [2] is listed as “did not interact or poorly interacted”. Besides, the “displacement of Beclin1(101–267) bound to BCL-2 by BH3 peptide” value in [3] was “easily disrupted”. Moreover, the “displacement of Beclin1(101–267) bound to BCL-XL by BH3 peptide” value in assay [4] was “easily disrupted”. Moreover, the IC50 is 16 nM in the assay with BCL-2 ∆C22; 5.3 nM in the assay with BCL-XL ∆C24; 30 nM in the assay on BCL-w ∆C29; more than 100000 nM with MCL ∆N151 ∆C23; 15000 nM with A1 ∆C20.
As to BCL-XL (from UniProt Q07817), the Kd with Beclin1 peptide is 1100 nM.
On to EEIIHNIARHLAQIGDEMDHNIQPT [BID], for which, in [1], the “displacement of Beclin1(101–267) bound to M11 by BH3 peptide” value is “remained intact; also recorded: failed to displace”. Moreover, the IC50 in the assay on BCL-2 ∆C22 is 6800 nM; with BCL-XL ∆C24, 82 nM; with BCL-w ∆C29 it was 40 nM; with A1 ∆C20 it was 9.3 nM.

B1: mouse BCL-XL (residues 1–44 and 85–196) (domain or fragment, UniProt Q64373-1 1-196, looked up)
chain: MSQSNRELVVDFLSYKLSQKGYSWSQFSDVEENRTEAPEETEAEAVKQALREAGDEFELRYRRAFSDLTSQLHITPGTAYQSFEQVVNELFRDGVNWGRIVAFFSFGGALCVESVDKEMQVLVSRIASWMATYLNDHLEPWIQENGGWDTFVDLYG
notes: also called BCL-XL lacking the internal long loop and the C-terminal tail region
Turning to B1, the binding result in assay [5] is reported as “binds”.

B2: Beclin1(101–150) (domain or fragment, mouse, UniProt O88597 101-150, looked up)
chain: ASDGGTMENLSRRLKVTGDLFDIMSGQTDVDHPLCEECTDTLLDQLDTQL
notes: also called mouse Beclin1 fragment consisting of residues 101–150; 50-residue Beclin1 fragment
For B2, the binding result in assay [6] is on record as “binds”.
On to HRAEVQIARKLQCIADQFHRLHTQ [BMF BH3 peptide, 24-mer (residues 214–237 of BMF)], for which the dissociation constant (Kd) in [7] came out at 300 nM.

The Kd is the constant that tells how readily two partners part at equilibrium.

(Values after PMC2222952, “Structural and Biochemical Bases for the Inhibition of Autophagy and Apoptosis by Viral BCL-2 of Murine γ-Herpesvirus 68” (PLoS Pathogens, 2008).)
